Measured values: patent US12281080B2, “Quinoline-based compounds and methods of inhibiting CDK8/19” (University of South Carolina, priority 2018, dated 2025)

Legend:
AURKB = AURKB (Homo sapiens (Human), UniProt Q96GD4); test: KINOMEscan scanMAX; type: binding; details: 2000 nM; read-out: Percent Control
TNK1 = TNK1 (Homo sapiens (Human), UniProt Q13470); test: KINOMEscan scanMAX; type: binding; details: 2000 nM; read-out: Percent Control
[1] = biological target: TYK2(JH2domain-pseudokinase) (Homo sapiens (Human), UniProt P29597); test: KINOMEscan scanMAX; type: binding; details: 2000 nM; read-out: Percent Control
BRAF(V600E) = BRAF(V600E) (Homo sapiens (Human), UniProt P15056, V600E); test: KINOMEscan scanMAX; type: binding; details: 2000 nM; read-out: Percent Control
WNK4 = WNK4 (Homo sapiens (Human), UniProt Q96J92); test: KINOMEscan scanMAX; type: binding; details: 2000 nM; read-out: Percent Control
TGFBR1 = TGFBR1 (Homo sapiens (Human), UniProt P36897); test: KINOMEscan scanMAX; type: binding; details: 2000 nM; read-out: Percent Control
CDK2 = CDK2 (Homo sapiens (Human), UniProt P24941); test: KINOMEscan scanMAX; type: binding; details: 2000 nM; read-out: Percent Control
PHKG1 = PHKG1 (Homo sapiens (Human), UniProt Q16816); test: KINOMEscan scanMAX; type: binding; details: 2000 nM; read-out: Percent Control
PHKG1, sequence (Q16816 whole entry): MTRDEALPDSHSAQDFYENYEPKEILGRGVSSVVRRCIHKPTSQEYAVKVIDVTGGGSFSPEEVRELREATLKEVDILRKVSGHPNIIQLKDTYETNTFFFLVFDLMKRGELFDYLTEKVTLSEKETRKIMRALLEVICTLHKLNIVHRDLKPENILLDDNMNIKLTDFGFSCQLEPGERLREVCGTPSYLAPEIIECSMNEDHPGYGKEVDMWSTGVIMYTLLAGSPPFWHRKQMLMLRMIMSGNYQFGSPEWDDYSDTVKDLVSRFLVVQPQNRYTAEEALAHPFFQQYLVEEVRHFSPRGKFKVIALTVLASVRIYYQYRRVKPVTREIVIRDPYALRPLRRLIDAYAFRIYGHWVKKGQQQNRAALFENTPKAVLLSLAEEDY

EGFR(T790M) = EGFR(T790M) (Homo sapiens (Human), UniProt P00533, T790M); test: KINOMEscan scanMAX; type: binding; details: 2000 nM; read-out: Percent Control
EPHB4 = EPHB4 (Homo sapiens (Human), UniProt P54760); test: KINOMEscan scanMAX; type: binding; details: 2000 nM; read-out: Percent Control
ALK(C1156Y) = ALK(C1156Y) (Homo sapiens (Human), UniProt Q9UM73, C1156Y); test: KINOMEscan scanMAX; type: binding; details: 2000 nM; read-out: Percent Control
ALK(C1156Y), sequence (Q9UM73 19-1620 C1156Y): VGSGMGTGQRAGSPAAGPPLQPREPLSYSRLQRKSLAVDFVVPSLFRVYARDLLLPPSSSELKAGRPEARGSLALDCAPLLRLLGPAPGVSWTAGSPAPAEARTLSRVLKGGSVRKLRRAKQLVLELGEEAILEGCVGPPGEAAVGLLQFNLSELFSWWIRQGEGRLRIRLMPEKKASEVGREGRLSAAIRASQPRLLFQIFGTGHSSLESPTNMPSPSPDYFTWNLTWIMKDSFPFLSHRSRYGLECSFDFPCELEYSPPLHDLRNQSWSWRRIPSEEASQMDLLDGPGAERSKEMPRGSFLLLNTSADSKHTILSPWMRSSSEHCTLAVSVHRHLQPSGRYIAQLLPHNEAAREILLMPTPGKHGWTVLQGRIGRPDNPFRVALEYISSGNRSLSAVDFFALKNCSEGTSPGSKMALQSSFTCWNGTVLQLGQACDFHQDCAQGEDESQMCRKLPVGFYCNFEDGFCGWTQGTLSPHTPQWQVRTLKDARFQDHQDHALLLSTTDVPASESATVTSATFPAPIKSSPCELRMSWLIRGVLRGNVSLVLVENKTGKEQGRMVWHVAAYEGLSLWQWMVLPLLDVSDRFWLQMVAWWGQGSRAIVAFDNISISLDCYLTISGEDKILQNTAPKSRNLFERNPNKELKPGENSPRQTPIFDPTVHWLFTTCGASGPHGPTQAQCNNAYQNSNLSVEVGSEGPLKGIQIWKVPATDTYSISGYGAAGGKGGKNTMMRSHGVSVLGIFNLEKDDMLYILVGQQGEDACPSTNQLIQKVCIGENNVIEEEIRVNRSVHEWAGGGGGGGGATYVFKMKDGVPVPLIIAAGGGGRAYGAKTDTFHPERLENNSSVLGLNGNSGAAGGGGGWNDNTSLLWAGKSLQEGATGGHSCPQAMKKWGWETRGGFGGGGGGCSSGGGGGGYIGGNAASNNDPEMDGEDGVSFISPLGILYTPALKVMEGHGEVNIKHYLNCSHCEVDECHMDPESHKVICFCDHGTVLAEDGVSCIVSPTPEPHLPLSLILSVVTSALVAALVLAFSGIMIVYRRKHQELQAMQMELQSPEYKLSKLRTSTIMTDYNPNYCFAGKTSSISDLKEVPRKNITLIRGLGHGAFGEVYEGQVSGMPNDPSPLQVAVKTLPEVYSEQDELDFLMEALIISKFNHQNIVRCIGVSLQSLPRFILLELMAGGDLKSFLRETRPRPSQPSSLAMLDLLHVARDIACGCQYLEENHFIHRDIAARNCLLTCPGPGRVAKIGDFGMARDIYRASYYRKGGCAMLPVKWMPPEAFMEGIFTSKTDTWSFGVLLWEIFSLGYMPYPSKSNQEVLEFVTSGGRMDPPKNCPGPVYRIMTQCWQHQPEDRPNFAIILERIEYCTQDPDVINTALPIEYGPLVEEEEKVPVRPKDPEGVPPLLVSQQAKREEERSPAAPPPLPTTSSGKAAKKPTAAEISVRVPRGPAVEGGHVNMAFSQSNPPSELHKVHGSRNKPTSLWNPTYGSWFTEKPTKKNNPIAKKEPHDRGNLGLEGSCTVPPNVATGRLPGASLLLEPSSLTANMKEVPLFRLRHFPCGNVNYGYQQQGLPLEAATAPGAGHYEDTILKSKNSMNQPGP

ABL1-phosphorylated = ABL1-phosphorylated (Homo sapiens (Human), UniProt P00519); test: KINOMEscan scanMAX; type: binding; details: 2000 nM; read-out: Percent Control
ABL2 = ABL2 (Homo sapiens (Human), UniProt P42684); test: KINOMEscan scanMAX; type: binding; details: 2000 nM; read-out: Percent Control
S6K1 (RPS6KB1) = S6K1 (RPS6KB1) (Homo sapiens (Human), UniProt P23443); test: KINOMEscan scanMAX; type: binding; details: 2000 nM; read-out: Percent Control
VRK2 = VRK2 (Homo sapiens (Human), UniProt Q86Y07); test: KINOMEscan scanMAX; type: binding; details: 2000 nM; read-out: Percent Control
VRK2, sequence (Q86Y07 whole entry): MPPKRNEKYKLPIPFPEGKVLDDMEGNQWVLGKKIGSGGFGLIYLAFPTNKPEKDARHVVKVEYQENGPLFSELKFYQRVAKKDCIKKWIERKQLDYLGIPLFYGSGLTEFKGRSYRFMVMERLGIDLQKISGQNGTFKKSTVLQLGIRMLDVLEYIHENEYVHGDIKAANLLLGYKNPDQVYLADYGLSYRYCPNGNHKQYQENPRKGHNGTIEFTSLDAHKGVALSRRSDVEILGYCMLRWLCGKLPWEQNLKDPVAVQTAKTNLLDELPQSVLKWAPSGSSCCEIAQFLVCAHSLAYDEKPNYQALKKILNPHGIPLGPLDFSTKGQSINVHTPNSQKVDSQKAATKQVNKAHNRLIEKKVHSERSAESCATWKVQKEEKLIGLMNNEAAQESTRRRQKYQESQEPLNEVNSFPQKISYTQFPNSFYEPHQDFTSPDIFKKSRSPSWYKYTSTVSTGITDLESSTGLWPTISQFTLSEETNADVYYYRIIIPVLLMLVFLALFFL

MERTK = MERTK (Homo sapiens (Human), UniProt Q12866); test: KINOMEscan scanMAX; type: binding; details: 2000 nM; read-out: Percent Control
JNK2 (MAPK9) = JNK2 (MAPK9) (Homo sapiens (Human), UniProt P45984); test: KINOMEscan scanMAX; type: binding; details: 2000 nM; read-out: Percent Control
FLT3-autoinhibited = FLT3-autoinhibited (Homo sapiens (Human), UniProt P36888); test: KINOMEscan scanMAX; type: binding; details: 2000 nM; read-out: Percent Control
PIM3 = PIM3 (Homo sapiens (Human), UniProt Q86V86); test: KINOMEscan scanMAX; type: binding; details: 2000 nM; read-out: Percent Control
HIPK1 = HIPK1 (Homo sapiens (Human), UniProt Q86Z02); test: KINOMEscan scanMAX; type: binding; details: 2000 nM; read-out: Percent Control
HIPK1, sequence (Q86Z02 whole entry): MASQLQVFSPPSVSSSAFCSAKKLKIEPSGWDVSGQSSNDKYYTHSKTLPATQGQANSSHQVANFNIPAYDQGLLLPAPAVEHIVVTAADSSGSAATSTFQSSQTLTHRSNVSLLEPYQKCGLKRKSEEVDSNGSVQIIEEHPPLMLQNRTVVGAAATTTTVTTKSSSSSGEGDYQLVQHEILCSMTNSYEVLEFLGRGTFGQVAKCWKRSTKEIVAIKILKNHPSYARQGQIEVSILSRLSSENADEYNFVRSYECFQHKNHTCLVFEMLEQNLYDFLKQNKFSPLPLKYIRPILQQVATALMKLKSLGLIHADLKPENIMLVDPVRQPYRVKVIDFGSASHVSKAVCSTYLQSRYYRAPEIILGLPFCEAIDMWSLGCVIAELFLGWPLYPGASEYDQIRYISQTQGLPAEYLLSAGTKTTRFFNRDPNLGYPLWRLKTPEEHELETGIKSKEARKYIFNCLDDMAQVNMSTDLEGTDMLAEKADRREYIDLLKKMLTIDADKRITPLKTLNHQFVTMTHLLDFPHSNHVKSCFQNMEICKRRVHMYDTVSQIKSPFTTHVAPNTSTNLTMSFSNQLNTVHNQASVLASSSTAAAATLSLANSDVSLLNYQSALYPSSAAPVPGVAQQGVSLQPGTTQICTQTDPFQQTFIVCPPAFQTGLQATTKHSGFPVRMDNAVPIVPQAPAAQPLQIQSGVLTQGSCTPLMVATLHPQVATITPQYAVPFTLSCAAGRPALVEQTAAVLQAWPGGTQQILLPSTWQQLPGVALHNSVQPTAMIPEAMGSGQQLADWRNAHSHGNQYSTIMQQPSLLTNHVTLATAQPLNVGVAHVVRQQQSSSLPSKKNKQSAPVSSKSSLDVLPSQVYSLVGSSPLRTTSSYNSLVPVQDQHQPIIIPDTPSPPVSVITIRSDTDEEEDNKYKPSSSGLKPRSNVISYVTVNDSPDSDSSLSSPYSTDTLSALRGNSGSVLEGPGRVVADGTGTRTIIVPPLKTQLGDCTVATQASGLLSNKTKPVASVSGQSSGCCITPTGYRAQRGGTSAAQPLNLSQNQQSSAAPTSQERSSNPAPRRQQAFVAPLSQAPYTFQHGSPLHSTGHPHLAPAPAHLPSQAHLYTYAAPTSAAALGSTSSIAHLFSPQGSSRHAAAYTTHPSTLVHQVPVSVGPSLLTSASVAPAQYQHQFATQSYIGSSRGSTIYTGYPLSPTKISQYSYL

MAP3K1 = MAP3K1 (Homo sapiens (Human), UniProt Q13233); test: KINOMEscan scanMAX; type: binding; details: 2000 nM; read-out: Percent Control
MYO3B = MYO3B (Homo sapiens (Human), UniProt Q8WXR4); test: DiscoverX Kd assay; details: average from duplicate measurements
LNCaP-C4-2 cells = test: PSA production (ELISA) in LNCaP-C4-2 cells; type: cell-based, human; details: 4 days treatment, conditioned media
Description: Prostate cancer LNCaP-C4-2 cells were treated with different concentrations of the compounds for 4 days and the conditioned media were collected for quantification of prostate specific antigen (PSA) with an ELISA kit.

MKNK2 = MKNK2 (Homo sapiens (Human), UniProt Q9HBH9); test: KINOMEscan scanMAX; type: binding; details: 2000 nM; read-out: Percent Control
EIF2AK1 = EIF2AK1 (Homo sapiens (Human), UniProt Q9BQI3); test: KINOMEscan scanMAX; type: binding; details: 2000 nM; read-out: Percent Control
EPHB1 = EPHB1 (Homo sapiens (Human), UniProt P54762); test: KINOMEscan scanMAX; type: binding; details: 2000 nM; read-out: Percent Control
GAK = GAK (Homo sapiens (Human), UniProt O14976); test: KINOMEscan scanMAX; type: binding; details: 2000 nM; read-out: Percent Control
MARK2 = MARK2 (Homo sapiens (Human), UniProt Q7KZI7); test: KINOMEscan scanMAX; type: binding; details: 2000 nM; read-out: Percent Control
ASK1 (MAP3K5) = ASK1 (MAP3K5) (Homo sapiens (Human), UniProt Q99683); test: KINOMEscan scanMAX; type: binding; details: 2000 nM; read-out: Percent Control
HUNK = HUNK (Homo sapiens (Human), UniProt P57058); test: KINOMEscan scanMAX; type: binding; details: 2000 nM; read-out: Percent Control
YSK1 (STK25) = YSK1 (STK25) (Homo sapiens (Human), UniProt O00506); test: KINOMEscan scanMAX; type: binding; details: 2000 nM; read-out: Percent Control
GRK1 = GRK1 (Homo sapiens (Human), UniProt Q15835); test: KINOMEscan scanMAX; type: binding; details: 2000 nM; read-out: Percent Control
YANK2 (STK32B) = YANK2 (STK32B) (Homo sapiens (Human), UniProt Q9NY57); test: KINOMEscan scanMAX; type: binding; details: 2000 nM; read-out: Percent Control
PRKCI = PRKCI (Homo sapiens (Human), UniProt P41743); test: KINOMEscan scanMAX; type: binding; details: 2000 nM; read-out: Percent Control
MELK = MELK (Homo sapiens (Human), UniProt Q14680); test: KINOMEscan scanMAX; type: binding; details: 2000 nM; read-out: Percent Control
PRKCD = PRKCD (Homo sapiens (Human), UniProt Q05655); test: KINOMEscan scanMAX; type: binding; details: 2000 nM; read-out: Percent Control
PRKCD, sequence (Q05655 whole entry): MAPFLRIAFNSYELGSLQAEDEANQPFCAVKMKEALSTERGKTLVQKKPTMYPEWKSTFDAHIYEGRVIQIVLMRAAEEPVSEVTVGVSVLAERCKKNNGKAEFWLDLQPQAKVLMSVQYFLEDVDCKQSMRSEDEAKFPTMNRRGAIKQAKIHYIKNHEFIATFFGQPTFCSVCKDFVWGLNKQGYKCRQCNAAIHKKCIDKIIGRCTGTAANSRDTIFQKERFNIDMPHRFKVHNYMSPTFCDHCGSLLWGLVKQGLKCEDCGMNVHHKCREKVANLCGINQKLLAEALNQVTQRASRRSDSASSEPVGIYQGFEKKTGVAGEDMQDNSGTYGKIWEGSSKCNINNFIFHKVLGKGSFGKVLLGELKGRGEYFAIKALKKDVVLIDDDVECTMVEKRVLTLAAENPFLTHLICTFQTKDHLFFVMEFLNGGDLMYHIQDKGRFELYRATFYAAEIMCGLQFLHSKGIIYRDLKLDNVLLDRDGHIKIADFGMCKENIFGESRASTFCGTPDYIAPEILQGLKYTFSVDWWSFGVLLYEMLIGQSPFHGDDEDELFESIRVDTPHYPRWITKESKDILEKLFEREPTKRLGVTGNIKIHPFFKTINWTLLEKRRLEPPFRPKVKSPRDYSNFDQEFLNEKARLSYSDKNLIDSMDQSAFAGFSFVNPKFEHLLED

YES (YES1) = YES (YES1) (Homo sapiens (Human), UniProt P07947); test: KINOMEscan scanMAX; type: binding; details: 2000 nM; read-out: Percent Control
[2] = biological target: ABL1(H396P)-nonphosphorylated (Homo sapiens (Human), UniProt P00519, H396P); test: KINOMEscan scanMAX; type: binding; details: 2000 nM; read-out: Percent Control
PIM1 = PIM1 (Homo sapiens (Human), UniProt P11309); test: KINOMEscan scanMAX; type: binding; details: 2000 nM; read-out: Percent Control
PIM1, sequence (P11309 whole entry): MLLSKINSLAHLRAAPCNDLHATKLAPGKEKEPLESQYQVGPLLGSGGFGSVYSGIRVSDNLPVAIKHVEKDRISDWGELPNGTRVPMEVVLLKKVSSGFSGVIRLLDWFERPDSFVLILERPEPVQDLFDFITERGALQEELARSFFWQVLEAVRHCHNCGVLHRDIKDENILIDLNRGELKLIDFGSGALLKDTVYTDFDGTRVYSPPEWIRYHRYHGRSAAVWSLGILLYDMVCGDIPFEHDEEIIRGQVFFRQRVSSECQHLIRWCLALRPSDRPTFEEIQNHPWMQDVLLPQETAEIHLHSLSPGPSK

CN1CCN(C(=O)c2ccc3cc(CCNc4ccnc5ccc(C#N)cc45)ccc3c2)CC1 [compound 6148, 4-((2-(6-(4-methylpiperazine-1-carbonyl)naphthalen-2-yl)ethyl)amino)quinoline-6-carbonitrile]
remaining binding at 2 µM (AURKB): 75% | remaining binding at 2 µM (TNK1): 95% | remaining binding at 2 µM [1]: 63% | remaining binding at 2 µM (BRAF(V600E)): 89% | remaining binding at 2 µM (WNK4): 69% | remaining binding at 2 µM (TGFBR1): 100% | remaining binding at 2 µM (CDK2): 95% | remaining binding at 2 µM (PHKG1): 95% | remaining binding at 2 µM (EGFR(T790M)): 93% | remaining binding at 2 µM (EPHB4): 89% | remaining binding at 2 µM (ALK(C1156Y)): 83% | remaining binding at 2 µM (ABL1-phosphorylated): 67% | remaining binding at 2 µM (ABL2): 93% | remaining binding at 2 µM (S6K1 (RPS6KB1)): 78% | remaining binding at 2 µM (VRK2): 58% | remaining binding at 2 µM (MERTK): 89% | remaining binding at 2 µM (JNK2 (MAPK9)): 67% | remaining binding at 2 µM (FLT3-autoinhibited): 88% | remaining binding at 2 µM (PIM3): 96% | remaining binding at 2 µM (HIPK1): 73% | remaining binding at 2 µM (MAP3K1): 78% | Kd (MYO3B): > 30 µM | Potency in inhibition of PSA production relative to Senexin B (LNCaP-C4-2 cells): ~3 fold | remaining binding at 2 µM (MKNK2): 71% | remaining binding at 2 µM (EIF2AK1): 84% | remaining binding at 2 µM (EPHB1): 92% | remaining binding at 2 µM (GAK): 100% | remaining binding at 2 µM (MARK2): 100% | remaining binding at 2 µM (ASK1 (MAP3K5)): 91% | remaining binding at 2 µM (HUNK): 74% | remaining binding at 2 µM (YSK1 (STK25)): 83% | remaining binding at 2 µM (GRK1): 63% | remaining binding at 2 µM (YANK2 (STK32B)): 89% | remaining binding at 2 µM (PRKCI): 89% | remaining binding at 2 µM (MELK): 97% | remaining binding at 2 µM (PRKCD): 83% | remaining binding at 2 µM (YES (YES1)): 100% | remaining binding at 2 µM [2]: 73% | remaining binding at 2 µM (PIM1): 62%
